Measurements published in patent US7893299B2, “Interleukin-1 and tumor necrosis factor-αmodulators; syntheses of such modulators and methods of using such modulators” (Nereus Pharmaceuticals, Inc., priority 2005, dated 2011).
Entries after “also recorded” stand apart in the source; their conditions may differ. Read-outs that look alike come from different tables or passages of the source.

How the values were obtained:
[1] = tested on: D-GalN/LPS endotoxic shock; experiment: lethality induced by D-GalN/LPS in mice; type: in vivo, BALB/c mice; settings: 5 μmol/kg i.p. 1 hour prior to D-GalN/LPS
Experimental: Male BALB/c mice, 8 to 10 weeks old were induced an endotoxic shock. The lethal injury was produced by an intraperitoneal (i.p.) injection of LPS (2 μg/kg) in combination with D-GalN (800 mg/kg). 5 μmol/kg of TTL3 or formula (IIB-A1) were administered by i.p. injection (0.5 ml) 1 hour prior to the challenge of D-GalN/LPS. Saline was given to the control animals. The lethality was monitored until 24 h after the administration of D-GalN/LPS.

[2] = tested on: TNF-α production in HPBMC; experiment: TNF-α levels in LPS-stimulated Human Peripheral Blood Mononuclear cells (ELISA); type: cell-based; settings: 5 hr drug exposure, read-out: EC50 Inhibition of TNF-α production
Experimental: Eighty μl of 3.1×10^5/ml Human Peripheral Blood Mononuclear cells (HPBMC) were seeded in Costar 3904 96-well plate in LGM-3 medium and cultured for 12 hr at 37° C., 5% CO2 and 95% humidified air. 10 μl of 8-point half-log serial dilutions of LT-1-85, CC-3-19, CC-3-13P, formula (IIB-A1) and CC-3-22 prepared in LGM-3 medium was added to the cells and incubated for 1 hr. Subsequently, 10 μl of 500 ng/ml lipopolysaccharide (LPS) diluted in LGM-3 medium from 1 mg/ml stock solution was added to the cells and incubation proceeded for another 4 hr at 37° C., 5% CO2 and 95% humidified air. SB203580, a known p38 MAP kinase inhibitor and DMSO were used as positive and negative controls, respectively. After 4 hr stimulation with LPS, the level of TNF-α from each sample was analyzed by using the human TNF-α cytoset ELISA kit. EC50 values (the drug concentration at which 50% of the maximal observed TNF-α production is inhibited) were determined using a standard sigmoidal dose response curve fitting algorithm (Prism 2.0, GraphPad Software Inc). A duplicate set of cell plates were assayed for cell viability using the Resazurin dye after the cells were incubated with test compounds for 24 hr. The fluorescence of the reduction product of Resazurin was measured using a Fusion microplate fluorometer (Packard Bioscience) with λex=535 nm and λem=590 nm filters. EC50 values (the drug concentration at which 50% of the maximal observed growth inhibition is established) were determined using a standard sigmoidal dose response curve fitting algorithm (Prism 2.0, GraphPad Software Inc).

RPMI 8226 cells = experiment: cell growth inhibition, RPMI 8226, Resazurin, 1% FBS; type: cell-based, Human; settings: 48 hr of drug exposure
Experimental: Human prostate adenocarcinoma (PC-3; CRL-1435), multiple myeloma (RPMI 8226; CCL-155) and embryonic kidney (HEK-293; CRL-1573) cells were all purchased from ATCC and maintained in appropriate culture media. The cells were cultured in an incubator at 37° C. in 5% CO2 and 95% humidified air.
For cell growth inhibition assays, PC-3 and HEK-293 cells were seeded at 5×10^3 and 1.5×10^3 cells/well respectively in 90 μl media containing 1% (v/v) FBS into 96 well (Corning; 3904) black-walled, clear-bottom tissue culture plates and the plates were incubated overnight to allow cells to establish and enter log phase growth. RPMI 8226 cells were seeded at 2×10^4 cells/well respectively in 90 μl media containing 1% (v/v) FBS into 96 well plates on the day of the assay. 4 mg/ml stock solutions of the compounds were prepared in 100% DMSO and stored at −20° C. The compounds were serially diluted and added in triplicate to the test wells. LT-1-85 was tested at concentrations ranging from 27 μM to 8.6 nM. Concentrations ranging from 30 μM to 9.7 nM were tested for CC-3-13P. Formula (IIB-A1) was tested at concentrations ranging from 26 μM to 8.4 nM. The plates were returned to the incubator for 48 hours. The final concentration of DMSO was 0.25% in all samples.
Following 48 hours of drug exposure, 10 μl of 0.2 mg/ml Resazurin in Mg2+, Ca2+ free phosphate buffered saline was added to each well and the plates were returned to the incubator for 3-6 hours. Since living cells metabolize Resazurin, the fluorescence of the reduction product of Resazurin was measured using a Fusion microplate fluorometer (Packard Bioscience) with λex=535 nm and λem=590 nm filters. Resazurin dye in medium without cells was used to determine the background, which was subtracted from the data for all experimental wells. […] Where the maximum inhibition of cell growth was less than 50%, an EC50 value was not determined. The data in Table 25 summarize the growth inhibitory effects of LT-1-85, CC-3-13P and formula (IIB-A1) against HEK-293, PC-3 and RPMI 8226 cells. The EC50 values indicate that LT-1-85 and CC-3-13P are cytotoxic against HEK-293, PC-3 and RPMI 8226 cells. Formula (IIB-A1) is cytotoxic against RPMI 8226 cells.

NO = type: cell-based, Murine; settings: 10 μM
Experimental: After 2 days in culture the medium was replaced by phenol-red free RPMI 1640 medium supplemented with 0.5 mM arginine and 2% FCS followed by the addition of the indicated stimuli. TTL3, TTL1, LT-1-45, LT-1-85 and formula (IIB-A1) were added to cells at the final concentration of 10 μM for 15 min. DMSO was used as a control. Cells were then stimulated with 200 ng/ml of LPS and 20 units/ml of IFNγ for 18 hr. NO release was measured as the accumulation of nitrite and nitrate in the incubation medium (phenol-red free). Nitrate was reduced to nitrite with nitrate reductase and was determined spectrophotometrically with Griess reagent. To determine the protein levels of COX-2 and NOS-2, cells (1.5×10^6) were washed with PBS and collected by centrifugation. Cell pellets were homogenized with 100 μl of buffer A (10 mM Hepes; pH 7.9, 1 mM EDTA, 1 mM EGTA, 100 mM KCl, 1 mM dithiothreitol, 0.5 mM phenylmethylsulfonyl fluoride, 2 μg/ml aprotinin, 10 μg/ml leupeptin, 2 μg/ml Nα-p-tosyl-L-lysine chloromethyl ketone, 5 mM NaF, 1 mM Na3VO4, 10 mM Na2MoO4). After 10 min at 4° C., Nonidet P-40 was added to reach a 0.5% concentration. The tubes were gently vortexed for 15 sec and centrifuged at 8,000×g for 15 min. The supernatants were stored at −80° C. until use. Protein content was assayed using the Bio-Rad protein reagent. Protein extracts were separated by 10% SDS-polyacrylamide gel electrophoresis. The gels were blotted onto a Hybond P membrane and then incubated with appropriate primary antibodies: anti-NOS-2 or anti-cyclooxygenase-2. Antibody against β-actin was used as a control to confirm the loading of each sample. […] Different exposure times of the films were used to ensure that bands were not saturated. Quantification of the films was performed by laser densitometry.

C=C[C@@]1(C)CCC=C2[C@H]1CC[C@@H]1[C@](C)(C(=O)NC3CCCCC3)CCC[C@@]21C [Formula (IIB-A1), N-Cyclohexylamide Derivative of TTL]
protection against lethality / survival time [1]: delay D-GalN/LPS lethality
protection against lethality / survival time ([1]; listed as formula (IIB-A1)): extending three folds the survival time
EC50 ([2]; Homo sapiens, PBMC, 5 h): 1.4 µM
EC50 (RPMI 8226 cells; Homo sapiens, RPMI-8226, 48 h): 21 µM
synthesis of NO induced by LPS/IFNγ (NO): also reduced

C=C[C@@]1(C)CCC=C2[C@H]1CC[C@@H]1[C@](C)(C(=O)N3CCOCC3)CCC[C@@]21C [LT-1-85]
EC50 [2]: 2.3 µM
EC50 ([2]; Homo sapiens, PBMC, 5 h): 1.9 µM
EC50 (RPMI 8226 cells): 13 µM
EC50 (RPMI 8226 cells; Homo sapiens, RPMI-8226, 48 h): 14 µM
synthesis of NO induced by LPS/IFNγ (NO): also reduced

C=C[C@@]1(C)CCC=C2[C@H]1CC[C@@H]1[C@](C)(C(=O)OC)CCC[C@@]21C [TTL3]
protection against lethality / survival time [1]: extending three folds the survival time; also recorded: delay D-GalN/LPS lethality
synthesis of NO induced by LPS/IFNγ (NO): also reduced
